Converted amounts (≈) assume the structure as drawn.

The values below come from ChEMBL document CHEMBL5360532, “Current scenario of quinolone hybrids with potential antibacterial activity against ESKAPE pathogens” (Eur J Med Chem, 2023).

What all share (type): functional
Experiment [1] deals with Staphylococcus aureus. The experiment is described as follows: Antibacterial activity against Staphylococcus aureus assessed as bacterial growth inhibition by broth microdilution assay. On the technique in general: Dilution methods test growth across graded concentrations, often in twofold steps.
In experiment [2] the test system is Mycobacterium tuberculosis. The experiment is described as follows: Potency index, ratio of isoniazid MIC to test compound MIC for antimycobacterial activity against Mycobacterium tuberculosis H37Rv assessed as bacterial growth inhibition by broth microdilution assay.
The test system of experiment [3] is Mycobacterium tuberculosis. The experiment can be described thus: Potency index, ratio of rifampicin MIC to test compound MIC for antimycobacterial activity against Mycobacterium tuberculosis H37Rv assessed as bacterial growth inhibition by broth microdilution assay.
Experiment [4] concerns Staphylococcus aureus. The experiment can be described thus: Potency index, ratio of ciprofloxacin MIC to test compound MIC for antimicrobial activity against Staphylococcus aureus assessed as bacterial growth inhibition by agar cup diffusion assay.
Experiment [5] has as its system Mycobacterium tuberculosis. The experiment is described as follows: Antimycobacterial activity against Mycobacterium tuberculosis H37Rv assessed as bacterial growth inhibition by broth microdilution assay.
The subject of experiment [6] is Klebsiella pneumoniae. The experiment can be described thus: Antibacterial activity against Klebsiella pneumoniae assessed as bacterial growth inhibition by two fold microdilution assay.
The test system of experiment [7] is Staphylococcus aureus. The experiment can be described thus: Antibacterial activity against methicillin resistant Staphylococcus aureus assessed as bacterial growth inhibition by two fold microdilution assay.
Experiment [8] deals with Staphylococcus aureus. The experiment can be described thus: Antibacterial activity against methicillin sensitive Staphylococcus aureus assessed as bacterial growth inhibition by two fold microdilution assay.
Experiment [9] relates to Escherichia coli. The experiment is described as follows: Antibacterial activity against Escherichia coli assessed as bacterial growth inhibition by two fold microdilution assay.
The subject of experiment [10] is Staphylococcus aureus. The experiment can be described thus: Antibacterial activity against ciprofloxacin resistant Staphylococcus aureus assessed as bacterial growth inhibition by broth microdilution assay.
Experiment [11] deals with Staphylococcus aureus. The experiment can be described thus: Antibacterial activity against methicillin resistant Staphylococcus aureus assessed as bacterial growth inhibition by microdilution assay.
Experiment [12] deals with Pseudomonas aeruginosa. The experiment is described as follows: Potency index, ratio of ampicillin MIC to test compound MIC for antimicrobial activity against Pseudomonas aeruginosa assessed as bacterial growth inhibition by broth microdilution assay.
Experiment [13] relates to Staphylococcus aureus. The experiment can be described thus: Potency index, ratio of ampicillin MIC to test compound MIC for antimicrobial activity against Staphylococcus aureus assessed as bacterial growth inhibition by broth microdilution assay.
The subject of experiment [14] is Escherichia coli. The experiment is described as follows: Potency index, ratio of ampicillin MIC to test compound MIC for antimicrobial activity against Escherichia coli assessed as bacterial growth inhibition by broth microdilution assay.
Experiment [15] concerns Escherichia coli. The experiment can be described thus: Antibacterial activity against Escherichia coli assessed as bacterial growth inhibition by broth microdilution assay.
The test system of experiment [16] is Pseudomonas aeruginosa. The experiment is described as follows: Antibacterial activity against Pseudomonas aeruginosa assessed as bacterial growth inhibition by broth microdilution assay.
In experiment [17] the test system is Pseudomonas aeruginosa. The experiment can be described thus: Antibacterial activity against Pseudomonas aeruginosa assessed as bacterial growth inhibition by serial dilution method.
Experiment [18] has as its system Staphylococcus aureus. The experiment is described as follows: Antibacterial activity against Staphylococcus aureus assessed as bacterial growth inhibition by serial dilution method.
Experiment [19] relates to Mycolicibacterium smegmatis. The experiment can be described thus: Antibacterial activity against Mycobacterium smegmatis assessed as bacterial growth inhibition by serial dilution method.

For `O=C(CSc1nnc(N2CCN(c3cc4c(cc3F)c(=O)c(C(=O)O)cn4C3CC3)CC2)s1)c1ccc([N+](=O)[O-])cc1`, the minimum inhibitory concentration (MIC) in [1] was 1 µg/mL (≈ 1.64 µM); in experiment [5], 0.5 µg/mL (≈ 0.819 µM). Also, the Ratio in experiment [2] stood at 3; in [3], 2; in [4] it was 2.
Consider `O=C(O)c1cn([C@@H]2C[C@@H]2F)c2cc(N3CCN(Cn4nc(-c5ccncc5)n(Cc5ccccc5)c4=S)CC3)c(F)cc2c1=O`, for which the MIC is not above 0.003 µg/mL in experiment [6], 0.5 µg/mL (≈ 0.794 µM) in experiment [7], 0.5 µg/mL (≈ 0.794 µM) in experiment [8] and not above 0.003 µg/mL in [9].
Turning to `CCCCCC(=O)N(CCNCCNc1ccc(CN2CCN(c3cc4c(cc3F)CC(C(=O)O)=CN4C3CC3)CC2)cc1)CCN(CCN(CCN(CCN(CCN(CCN(CCN(CCN(CCN(CCN(CCN(CCN(CCN(CCN(CCN(CCN(CCN(CCN(CCN(CCN(CCN(CCN(CCN(CCN(CCN(CCN(CCN(CCN(CCN(CCN(CCNC(C)=O)C(C)=O)C(C)=O)C(C)=O)C(C)=O)C(C)=O)C(C)=O)C(C)=O)C(C)=O)C(C)=O)C(C)=O)C(C)=O)C(C)=O)C(C)=O)C(C)=O)C(C)=O)C(C)=O)C(C)=O)C(C)=O)C(C)=O)C(C)=O)C(C)=O)C(C)=O)C(C)=O)C(C)=O)C(C)=O)C(C)=O)C(C)=O)C(=O)CCCCC)C(=O)CCCCC)C(=O)CCCCC`, the MIC in experiment [10] amounted to 0.44 µg/mL (≈ 0.129 µM).
Regarding `CCCCC(=O)N(CCNCCNc1ccc(CN2CCN(c3cc4c(cc3F)CC(C(=O)O)=CN4C3CC3)CC2)cc1)CCN(CCN(CCN(CCN(CCN(CCN(CCN(CCN(CCN(CCN(CCN(CCN(CCN(CCN(CCN(CCN(CCN(CCN(CCN(CCN(CCN(CCN(CCN(CCN(CCN(CCN(CCN(CCN(CCN(CCNC(C)=O)C(C)=O)C(C)=O)C(C)=O)C(C)=O)C(C)=O)C(C)=O)C(C)=O)C(C)=O)C(C)=O)C(C)=O)C(C)=O)C(C)=O)C(C)=O)C(C)=O)C(=O)CCCC)C(=O)CCCC)C(=O)CCCC)C(=O)CCCC)C(=O)CCCC)C(=O)CCCC)C(=O)CCCC)C(=O)CCCC)C(=O)CCCC)C(=O)CCCC)C(=O)CCCC)C(=O)CCCC)C(=O)CCCC)C(=O)CCCC)C(=O)CCCC`, the minimal inhibitory concentration (MIC) in experiment [10] was 0.62 µg/mL (≈ 0.164 µM).
Regarding `COP(=O)(OC)C(c1cc(C(C)(C)C)c(O)c(C(C)(C)C)c1)N1CCN(c2cc3c(cc2F)c(=O)c(C(=O)O)cn3C2CC2)CC1` (stereo unspecified), the MIC in experiment [11] is 0.5 µg/mL.
Turning to `CCn1cc(C(=O)NN2C(=O)/C(=C/C=C/c3ccccc3)SC2=S)c(=O)c2cc(F)ccc21`, the Ratio in experiment [12], in experiment [13] and in experiment [14] was more than 10 each time. The minimum inhibitory concentration (MIC) in [1], in experiment [15] and in experiment [16] was less than 1 µg/mL in each case.
In the case of `COC(=O)c1ccc(NC(=O)COC(=O)c2ccncc2)cc1OCCC(=O)NC1CCN(c2c(F)cc3c(=O)c(C(=O)O)cn(C4CC4)c3c2Cl)C1` (stereo unspecified), the MIC in [17], in experiment [18] and in experiment [19] was 0.125 µg/mL (≈ 0.167 µM) throughout.

The MIC is the lowest concentration that inhibits growth of the organism.
